Source: paper PMC12838644, “Dihydrotanshinone as a Natural Product-Based CYP17A1 Lyase Inhibitor for Hyperandrogenic Disorders” (Biomolecules, 2026)
Where two headings read alike, the source gives them in different places.

How the values were obtained:
[1] = target: T1, CYP17A1 17,20-lyase (Homo sapiens, UniProt P05093); experiment: CYP17A1 17,20-lyase activity assay (DHEA from 17OH-pregnenolone, POR, CYP17A1 and cytochrome b5); assay type: biochemical; conditions: for inhibition at 10 µM: read-out: % Inhibition CYP17A1-Lyase; for Residual 17,20-lyase activity: % of DMSO control; for Lyase/CYP21A2 Selectivity Index: (% Inhibition Lyase)/(% Inhibition CYP21A2) at 10 µM (SM 10 µg/mL); for Lyase/OH Selectivity Index: (% Inhibition Lyase)/(% Inhibition OH) at 10 µM (SM 10 µg/mL)
T1 sequence (P05093 1-508): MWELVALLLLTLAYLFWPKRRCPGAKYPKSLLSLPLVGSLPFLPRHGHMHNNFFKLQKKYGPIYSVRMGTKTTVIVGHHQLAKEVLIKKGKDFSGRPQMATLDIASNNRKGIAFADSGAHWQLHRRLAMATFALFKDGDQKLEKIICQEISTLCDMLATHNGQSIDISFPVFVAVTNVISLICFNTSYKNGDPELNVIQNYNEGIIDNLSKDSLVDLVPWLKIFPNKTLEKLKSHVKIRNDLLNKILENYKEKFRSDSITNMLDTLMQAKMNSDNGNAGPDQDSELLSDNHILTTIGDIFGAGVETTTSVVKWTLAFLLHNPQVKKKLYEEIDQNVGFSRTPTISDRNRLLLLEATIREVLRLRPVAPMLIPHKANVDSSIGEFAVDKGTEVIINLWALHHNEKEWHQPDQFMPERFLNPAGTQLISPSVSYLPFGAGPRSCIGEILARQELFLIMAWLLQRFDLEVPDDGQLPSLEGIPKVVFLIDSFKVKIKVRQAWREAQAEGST
Description: Assay of CYP17A1 17α-hydroxylase and 17,20-lyase activities were performed as described previously. The 17α-hydroxylase activity was measured by conversion of progesterone to 17OH-progesterone, while production of DHEA from 17OH-pregnenolone was used for monitoring the 17,20-lyase activity of CYP17A1. In vitro CYP17A1 assays were performed using a liposome system consisting of human p450 oxidoreductase (POR) and CYP17A1 at a ratio of 3:4 (POR: CYP17A1). […] The drugs were added to the final mixture and incubated for 1h before the catalytic reaction was initiated by the addition of NADPH to 1 mM final concentration. Radiolabeled [^14C]-progesterone (10,000 cpm in 1 µM) was used as a tracer in each reaction. Steroids were extracted and separated by thin-layer chromatography (TLC) on silica gel (SIL G/UV254) TLC plates (Macherey-Nagel, Oensingen, Switzerland) as previously described.
In vitro CYP17A1 17,20-lyase activity assays were performed using POR, CYP17A1 and cytochrome b5 as described previously. The final assay mixture consisted of proteins, 10 mM MgCl2, 6 mM KOAc, 0.05 mg/mL DLPC, 1 mM reduced glutathione in 50 mM HEPES-NaOH buffer (pH 7.4), and the reaction volume was 200 μL. The drugs were added to the final mixture and incubated for 1h before the catalytic reaction was initiated by the addition of NADPH to 1 mM final concentration. Radiolabeled [^3H]-17OH-pregnenolone (50,000 cpm in 1 µM) was added as a tracer and the enzyme activity was measured by using the scintillation counter in the water release assay.

[2] = system: RWPE-1 cells; experiment: alamarBlue cytotoxicity assay, RWPE-1; assay type: cell-based; conditions: Homo sapiens, read-out: RWPE-1 (IC50)
Description: (§1) RWPE-1 cells (ATCC: CRL-36O7) were cultured in keratinocyte serum-free media (K-SFM) supplemented with 0.05 mg/mL bovine pituitary extract and 5 ng/mL epidermal growth factor, and 1% penicillin (100 U/mL; Thermo Fisher Scientific, Waltham, MA, USA), and streptomycin (100 μg/mL; GIBCO). […] Passage numbers remained below 30 as per standard procedures. All cell lines were validated and characterized before use to ensure their authenticity and reliability. Routine mycoplasma testing was conducted to confirm that the cells were free from contamination. Additionally, key functional and morphological characteristics were assessed to verify their alignment with previously reported profiles.
(§2) The alamarBlue® assay (Thermo Fisher Scientific, Waltham, MA USA) was conducted as previously described. RWPE-1 cells, HEK-293 cells, and NCI-H295R cells were plated in 96-well plates at 10,000 cells per well and incubated overnight at 37 °C with 5% CO2. […] Cells were incubated for an additional 24 h. Cell viability was measured using the alamarBlue® assay. Post-incubation, 0.05 mg/mL alamarBlue® solution in phosphate-buffered saline (PBS) was added to each well. The plates were incubated in the dark at 37 °C with 5% CO2 for 4 h, and fluorescence was measured at an excitation wavelength of 540 nm and an emission wavelength of 590 nm. Cell viability was calculated relative to the control sample treated with DMSO. All experiments were conducted in triplicate.

[3] = system: NCI-H295R cells; experiment: alamarBlue cytotoxicity assay, NCI-H295R; assay type: cell-based; conditions: Homo sapiens, read-out: NCI-H295R (IC50)
Description: as §1, §2

[4] = system: CYP21A2; experiment: Western blot of CYP21A2 protein expression in treated HEK-293T cells; assay type: cell-based, human; conditions: normalized to β-actin, 4 h treatment, DMSO control 1.07
Description: CYP21A2 expression was determined from total protein extracts. Cells were incubated with the previously described lysis buffer for 1 h and centrifuged at 10,000× g for 10 min at 4 °C [54]. The supernatant was collected, and total protein was determined using the Pierce Coomassie Plus (Bradford) assay kit (Thermo Fisher Scientific, Hanover Park, IL, USA). 50 μg of total protein was loaded onto an SDS-PAGE gel (GenScript, Piscataway, NJ, USA) and then transferred to a PVDF membrane as previously described. Two primary antibodies were used: a mouse DKY-Tag monoclonal antibody (GenScript, Catalog No. A00187) at a dilution of 1:1000 and a mouse anti-β-actin monoclonal antibody (Sigma Aldrich, St. Louis, MO, USA, Catalog No. SAB3500350) at a dilution of 1:1500. The secondary antibody, IRDye 800CW-conjugated donkey anti-mouse antibody (LI-COR, Lincoln, NE, USA, Catalog No. 926-32212), was used at a dilution of 1:15,000. Fluorescence signals were detected using an Odyssey SA infrared imaging system (LI-COR Bioscience Inc., Lincoln, NE, USA).

[5] = 10 µM (SM extract 10 µg/mL), calculated as 100% − % residual activity
[6] = RWPE-1, cytotoxicity, alamarBlue, 24 h incubation, mean ± SD, three experiments
[7] = cytotoxicity, alamarBlue, 24 h incubation, mean ± SD, three experiments

SMILES	inhibition at 10 µM [1, 5] [%]	Residual 17,20-lyase activity ([1]; 10 µM (SM extract 10 µg/mL)) [%]	Lyase/CYP21A2 Selectivity Index [1]	Lyase/OH Selectivity Index [1]	IC50 [2, 6] [nM]	IC50 [3, 7] [nM]	inhibition at 10 µM [1] [%]	IC50 ([2]; RWPE-1, 24 h) [nM]	IC50 ([3]; 24 h) [nM]	CYP21A2 protein levels, normalized densitometry values [4]
Cc1coc2c1C(=O)C(=O)c1c-2ccc2c(C)cccc12 [TAI, tanshinone I]	28.2	72	High ^c	High ^c	2270 ± 3250	1130 ± 630				
Cc1cccc2c3c(ccc12)C1=C(C(=O)C3=O)[C@@H](C)CO1 [DT, dihydrotanshinone I]		43	3.80				56.6	1400 ± 420	950 ± 480	1.15
Cc1coc2c1C(=O)C(=O)c1c-2ccc2c1CCCC2(C)C [TAII, tanshinone IIA]	43	57	High ^c	High ^c	4500 ± 11800	1200 ± 3440				1.30
